A word on the GI50: it is the concentration that inhibits growth by half.

GI50 data for eight compounds are collected here from patent US8450479B2, “3-substituted-4-oxo-3,4-dihydro-imidazo[5,1-d][1,2,3,5-tetrazine-8-carboxylic acid amides and their use” (Pharminox Limited, priority 2007, dated 2013).

Holding throughout (type): cell-based
Test [1] concerns Glioma SNB19V (MGMT−). In words: Clonogenic survival assay (Table 14, assay not named there). As for the experimental part:
(§1) A clonogenic assay, which measures tumour cell survival and subsequent proliferative ability following drug exposure was used to verify that the cells remaining metabolically active following treatment with TMZ and new derivatives. See, e.g., Brown, J. M., et al., 1999, “Apoptosis, p53, and tumor cell sensitivity to anticancer agents”, Cancer Research, Vol. 59, No. 7, pp. 1391-1399.
(§2) Exponentially growing cells were seeded in triplicate at a density of 200 cells/well in 6 well plate and allowed to attach overnight and then exposed to increasing concentration of TMZ and test compounds (0, 5, 10, 100, 500, 1000 μM). After 18 hours, the plates were changed to drug free media and left to grow in the 37° C., 5% CO2 incubator. After 14 days, the plates were rinsed in PBS and fixed with pre-chilled methanol in room temperature for 20 minutes, and then stained with 0.5% methylene blue in 1:1 methanol/H2O (v/v) for 10 minutes and thoroughly washed in distilled water and air dried. Cell colonies containing >30 cells were counted. Growth inhibition by TMZ and test compounds was estimated by dividing the mean number of colonies under drug treatment by the mean number of colonies without drug treatment.

Test [2] relates to Glioma SNB19M (MGMT+). Described as above. The method, then:
as §1, §2

Another test deals with Glioma U373V (MGMT low). In words: MTT assay for 7-day toxicity assay. An outline of the steps:
(§3)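 MGMT-transfected or vector-control glioma cells were seeded at 650 cells/well, attached overnight, and exposed for 7 days at 37 °C to compound at final 0.5–1000 μM. Viability was read by MTT (0.4 mg/mL, 4 h) formazan absorbance, with a day-0 plate included.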
A general note: Tetrazolium dyes change colour on reduction, which living cells bring about.

The test system of another test is Glioma U373M (MGMT+). The test can be described thus: MTT assay for 7-day toxicity assay. The essentials:
as §3

Test [3] relates to Glioma SNB19V (MGMT−). The test can be described thus: MTT assay for 7-day toxicity assay. The essentials:
as §3

In test [4] the test system is Glioma SNB19M (MGMT+). In words: MTT assay for 7-day toxicity assay. The essentials: as §3
The mark [5] stands for this setting: Glioma SNB19V (MGMT−), 7-day MTT, single determinations.
Where [6] appears, read: 168 h, Glioma SNB19M (MGMT+), 7-day MTT, single determinations.
[7] abbreviates: 168 h, Glioma U373M (MGMT+), 7-day MTT, single determinations, read-out: GI50.
Where [8] appears, read: Glioma U373M (MGMT+), 7-day MTT, single determinations, read-out: GI50.
[9] abbreviates: 168 h, Glioma SNB19M (MGMT+), 7-day MTT, single determinations, read-out: GI50.
The mark [10] stands for this setting: Glioma SNB19M (MGMT+), 7-day MTT, single determinations, read-out: GI50.
The mark [11] stands for this setting: Glioma U373V (MGMT low), read-out: GI50.
Where [12] appears, read: Glioma U373M (MGMT+), read-out: GI50.
Where [13] appears, read: Glioma SNB19M (MGMT+), read-out: GI50.
Setting [14] is: Glioma SNB19V (MGMT−), read-out: GI50.

Structures are written as SMILES. Where “and” joins values, the source holds several entries; their conditions need not be identical. Identical values can stand only once. Like-named read-outs stand apart in the source and are kept apart here.

For the compound `C[C@H](c1ccccc1)n1nnc2c(C(N)=O)ncn2c1=O` [BB-001, (R)-3-(-1-Phenylethyl)-8-carbamoylimidazotetrazin-4-one], the GI50 amounted to 22.2 µM in the test with Glioma SNB19V (MGMT−) [1]; 8.5 µM in the test on Glioma SNB19M (MGMT+) [2]; 49 µM in the test with Glioma U373V (MGMT low) (168 h, Glioma U373V (MGMT low), 7-day MTT, single determinations); 71.3 µM with Glioma U373V (MGMT low) (Glioma U373V (MGMT low), 7-day MTT, single determinations); 67.1 µM with Glioma U373M (MGMT+) (168 h, Glioma U373M (MGMT+), 7-day MTT, single determinations); 79.6 µM in the test with Glioma U373M (MGMT+) (Glioma U373M (MGMT+), 7-day MTT, single determinations). Further, the GI50 in the test with Glioma SNB19V (MGMT−) [3] (168 h, Glioma SNB19V (MGMT−), 7-day MTT, single determinations) came to 33.6 µM; with Glioma SNB19V (MGMT−) [3] (setting [5]), 31.8 µM; with Glioma SNB19M (MGMT+) [4] (setting [6]), 46.1 µM; with Glioma SNB19M (MGMT+) [4] (Glioma SNB19M (MGMT+), 7-day MTT, single determinations) it was 53.4 µM.

Regarding `C#CCn1nnc2c(C(N)=O)ncn2c1=O` [EE-001, 3-Propargyl-8-carbamoylimidazotetrazin-4-one], the GI50 was 7 µM with Glioma SNB19V (MGMT−) [1]; 7.8 µM in the test with Glioma SNB19M (MGMT+) [2]; 45.1 µM in the test with Glioma U373M (MGMT+) (setting [7]); 42.8 µM and 24.6 µM and 31.7 µM with Glioma U373M (MGMT+) (setting [8]); 26.9 µM in the test with Glioma SNB19M (MGMT+) [4] (setting [9]); 30.6 µM and 41.6 µM and 52.1 µM with Glioma SNB19M (MGMT+) [4] (setting [10]).

On to `CCOC(=O)Cn1nnc2c(C(N)=O)ncn2c1=O` [PX-016], for which the GI50 in the test on Glioma U373V (MGMT low) (168 h, Glioma U373V (MGMT low), 7-day MTT, single determinations, read-out: GI50) is 49.9 µM; in the test on Glioma U373V (MGMT low) (Glioma U373V (MGMT low), 7-day MTT, single determinations, read-out: GI50), 59.6 µM and 73.8 µM and 69.5 µM; in the test with Glioma U373M (MGMT+) (setting [7]) it was 49.6 µM; with Glioma U373M (MGMT+) (setting [8]), 62.5 µM and 54.7 µM; in the test with Glioma SNB19V (MGMT−) [3] (168 h, Glioma SNB19V (MGMT−), 7-day MTT, single determinations, read-out: GI50) it was 55.2 µM; with Glioma SNB19V (MGMT−) [3] (Glioma SNB19V (MGMT−), 7-day MTT, single determinations, read-out: GI50) it was 48.7 µM and 57.3 µM and 48.4 µM. Also, the GI50 in the test on Glioma SNB19M (MGMT+) [4] (setting [9]) was 66.7 µM; with Glioma SNB19M (MGMT+) [4] (setting [10]) it was 54 µM and 61.7 µM and 61.8 µM.

In the case of `COCn1nnc2c(C(N)=O)ncn2c1=O` [PX-020], the GI50 with Glioma SNB19V (MGMT−) [1] was 38.6 µM; in the test on Glioma SNB19M (MGMT+) [2] it was 30 µM; in the test on Glioma U373V (MGMT low) (setting [11]), 21.3 µM and 22 µM and 30.2 µM and 30.4 µM; in the test on Glioma U373M (MGMT+) (setting [12]), 26.5 µM and 39.6 µM; in the test on Glioma SNB19M (MGMT+) [4] (setting [13]), 28.7 µM and 26.6 µM and 43.4 µM.

Take `C[Si](C)(C)CCOCn1nnc2c(C(N)=O)ncn2c1=O` [PX-021]: the GI50 in the test on Glioma SNB19V (MGMT−) [1] is 43.3 µM; in the test on Glioma SNB19M (MGMT+) [2], 22.1 µM; in the test on Glioma U373V (MGMT low) (setting [11]) it was 28.2 µM and 22.3 µM and 25.5 µM; with Glioma U373M (MGMT+) (setting [12]), 27.2 µM and 23.6 µM and 21.9 µM; with Glioma SNB19V (MGMT−) [3] (setting [14]) it was 36 µM and 26.9 µM and 26.8 µM; in the test with Glioma SNB19M (MGMT+) [4] (setting [13]), 26.7 µM and 29.1 µM.

Take `NC(=O)c1ncn2c(=O)n(CCl)nnc12` [PX-030]: the GI50 with Glioma SNB19V (MGMT−) [1] is 38.9 µM; in the test with Glioma SNB19M (MGMT+) [2], 31.5 µM; in the test on Glioma U373V (MGMT low) (setting [11]) it was 34.8 µM and 23.8 µM; in the test on Glioma U373M (MGMT+) (setting [12]) it was 23.7 µM and 25.1 µM; in the test with Glioma SNB19V (MGMT−) [3] (setting [14]) it was 44.6 µM and 24.6 µM; in the test with Glioma SNB19M (MGMT+) [4] (setting [13]) it was 36.6 µM and 25.4 µM.

As for `Cn1nnc2c(C(N)=O)ncn2c1=O` [TMZ, 3-Methyl-4-oxo-3,4-dihydro-imidazo[5,1-d][1,2,3,5]tetrazine-8-carboxylic acid amide, reference compound], the GI50 in the test with Glioma SNB19V (MGMT−) [1] was determined as 32.2 µM; with Glioma SNB19M (MGMT+) [2], 875 µM; in the test with Glioma SNB19M (MGMT+) [2] (listed as Temozolomide), 834 µM; in the test on Glioma U373V (MGMT low) (Glioma U373V (MGMT low)), 68 µM; in the test with Glioma U373V (MGMT low) (read-out: TMZ GI50 Average, Glioma U373V (MGMT low), average of Table 1), 68 µM; in the test with Glioma U373M (MGMT+) (Glioma U373M (MGMT+)), 369 µM. Further, the GI50 in the test on Glioma U373M (MGMT+) (read-out: TMZ GI50 Average, Glioma U373M (MGMT+), average of Table 1) was 369 µM; with Glioma SNB19V (MGMT−) [3] (Glioma SNB19V (MGMT−)) it was 35.7 µM; in the test on Glioma SNB19V (MGMT−) [3] (setting [5]) it was 27.6 µM; in the test on Glioma SNB19V (MGMT−) [3] (read-out: TMZ GI50 Average, Glioma SNB19V (MGMT−), average of Table 1), 35.7 µM; with Glioma SNB19M (MGMT+) [4] (setting [6]) it was 464 µM; in the test with Glioma SNB19M (MGMT+) [4] (Glioma SNB19M (MGMT+)) it was 470 µM. In addition, the GI50 with Glioma SNB19M (MGMT+) [4] (read-out: TMZ GI50 Average, Glioma SNB19M (MGMT+), average of Table 1) amounted to 470 µM.

For `C[S+]([O-])Cn1nnc2c(C(N)=O)ncn2c1=O` (centres unmarked) [UU-003, 3-Methanesulfinylmethyl-4-oxo-3,4-dihydro-imidazo[5,1-d][1,2,3,5]tetrazine-8-carboxylic acid amide], the concentration for 50% growth inhibition (GI50) in the test with Glioma U373M (MGMT+) (setting [12]) is 4.6 µM and 8.6 µM and 7.6 µM and 8.2 µM; in the test on Glioma SNB19V (MGMT−) [3] (setting [14]), 30.3 µM and 38.1 µM and 25.3 µM and 21.8 µM.
